Values quoted from earlier work in patent US5389382A, “Hydrosols of pharmacologically active agents and their pharmaceutical compositions comprising them” (Sandoz Ltd., priority 1986, dated 1995).

Settings: at room temperature

For Cc1ccc2c(-c3ccccc3)nc(=O)n(C(C)C)c2c1 [Proquazone, 1-isopropyl-7-methyl-4-phenyl-2(1H)-quinazolone], the water solubility is given as “below 0.1 g/100 ml”.
